From PMC12615753, “Glutathione as a taste modulator: molecular mechanisms of interaction with umami and sweet taste receptors” (Food Chemistry: Molecular Sciences, 2025)

Biological target: T1, hTAS1R1 A302W/rTAS1R3 (UniProt Q7RTX1+Q923K1, A302W)
T1 construct: UniProtKB number Q7RTX1–1); The cDNA coding region of rTAS1R3 was synthesized with optimized-codon usage for human expression; expressed in transfected cells; host or cells: HEK293T/17
T1 sequence (Q7RTX1 21-841 A302W): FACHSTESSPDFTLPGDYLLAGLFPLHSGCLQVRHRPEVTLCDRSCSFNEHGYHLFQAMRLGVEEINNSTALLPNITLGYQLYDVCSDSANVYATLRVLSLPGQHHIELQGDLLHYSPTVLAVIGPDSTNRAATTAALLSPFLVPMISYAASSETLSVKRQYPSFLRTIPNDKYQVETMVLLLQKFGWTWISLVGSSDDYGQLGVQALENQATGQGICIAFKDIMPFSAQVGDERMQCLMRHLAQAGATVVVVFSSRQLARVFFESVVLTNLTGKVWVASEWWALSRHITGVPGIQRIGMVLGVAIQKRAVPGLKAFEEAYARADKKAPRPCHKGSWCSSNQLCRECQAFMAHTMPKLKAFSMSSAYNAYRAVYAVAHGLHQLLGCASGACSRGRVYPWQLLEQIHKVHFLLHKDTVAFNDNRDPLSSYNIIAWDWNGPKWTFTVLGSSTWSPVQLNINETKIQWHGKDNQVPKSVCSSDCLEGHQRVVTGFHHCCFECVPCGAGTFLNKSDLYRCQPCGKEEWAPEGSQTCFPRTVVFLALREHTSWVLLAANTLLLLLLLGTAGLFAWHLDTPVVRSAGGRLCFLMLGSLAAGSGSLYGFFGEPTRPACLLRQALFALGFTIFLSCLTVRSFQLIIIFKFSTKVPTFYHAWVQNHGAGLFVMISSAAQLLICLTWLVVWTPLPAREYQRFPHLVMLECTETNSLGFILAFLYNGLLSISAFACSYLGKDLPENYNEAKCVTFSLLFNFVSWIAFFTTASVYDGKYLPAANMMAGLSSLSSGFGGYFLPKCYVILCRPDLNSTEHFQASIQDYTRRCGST
T1 sequence (Q923K1 21-858): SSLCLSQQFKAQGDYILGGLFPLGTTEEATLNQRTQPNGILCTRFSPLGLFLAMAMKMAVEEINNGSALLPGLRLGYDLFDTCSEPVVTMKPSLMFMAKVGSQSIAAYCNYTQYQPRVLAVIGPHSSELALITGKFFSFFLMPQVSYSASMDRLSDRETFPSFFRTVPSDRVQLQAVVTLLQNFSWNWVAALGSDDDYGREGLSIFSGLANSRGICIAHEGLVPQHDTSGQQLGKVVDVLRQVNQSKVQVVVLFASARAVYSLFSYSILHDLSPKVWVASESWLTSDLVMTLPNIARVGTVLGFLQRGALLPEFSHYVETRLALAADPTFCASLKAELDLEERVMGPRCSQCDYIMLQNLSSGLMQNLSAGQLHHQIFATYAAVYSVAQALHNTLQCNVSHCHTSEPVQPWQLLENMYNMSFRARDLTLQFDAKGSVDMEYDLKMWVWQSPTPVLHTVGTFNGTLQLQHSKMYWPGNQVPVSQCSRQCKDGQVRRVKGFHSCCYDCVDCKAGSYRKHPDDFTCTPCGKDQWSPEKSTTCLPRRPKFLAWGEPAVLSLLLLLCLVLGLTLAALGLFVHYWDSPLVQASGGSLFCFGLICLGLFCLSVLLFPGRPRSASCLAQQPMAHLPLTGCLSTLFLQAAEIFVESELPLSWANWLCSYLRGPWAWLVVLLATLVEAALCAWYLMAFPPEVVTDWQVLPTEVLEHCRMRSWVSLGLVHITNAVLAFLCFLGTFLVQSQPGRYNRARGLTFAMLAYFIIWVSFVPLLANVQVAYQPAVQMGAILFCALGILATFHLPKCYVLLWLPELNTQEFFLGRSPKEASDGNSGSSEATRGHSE
Test: Calcium assay, hTAS1R1 mutant co-expressed with rTAS1R3
Assay type: cell-based, human, rat
Source text: Chimeric Gα proteins, such as Gα16Gust44, Gα16Gi3 or Gα15i2, are widely used in the functional expression of TAS1R receptors ([Backes et al., 2015]; [Suess et al., 2015]; [Toda et al., 2021], [Toda et al., 2013], [Toda et al., 2018]; [Zhang et al., 2008]). Chimeric Gα15i2 (([Toda et al., 2013]), Supplementary data) was generated by replacing the last five residues of the C-terminal tail of rat Gα15i2 (EINLL) (UniProt number G3V6N8; https://www.uniprot.org/uniprot/) with the counterpart sequence from human GNAI2 (DCGLF) (UniProt number P04899-1) and cloning into the pcDNA3.1/Hygro vector (Invitrogen, Thermo Fisher Scientific, Illkirch, France) between the HindIII and NotI restriction sites, resulting in the plasmid pcDNA3.1-Gα15i2. Chimeric Gα16Gust44 construct have already been reported ([Raliou et al., 2011]). Briefly, Gα16Gust44 was generated by replacing the C-terminal of Gα16 with the C-terminal 44 residues of gustducin. As previously described, hTAS1R1 was amplified from human fungiform papillae cDNA and cloned and inserted into pcDNA3 (Invitrogen), generating pcDNA3-TAS1R1-WT (wild-type) ([Raliou et al., 2011]). […] The cDNA coding region of rTAS1R3 was synthesized with optimized-codon usage for human expression (Genewiz) and was cloned and inserted into the mammalian pcDNA4/myc-HisA (Invitrogen) expression vector between the EcoRI and NotI restriction sites, resulting in the plasmid pcDNA4-rTAS1R3. […] The sequence integrity of all the plasmid constructs was verified via automated DNA sequencing (Genewiz).
The hTAS1R1 mutants were co-expressed with the rTAS1R3 subunit in HEK293 cells. […] As a control, the functionality of the mutated receptors was checked after stimulation with S807 (Fig. S8), which interacts with TAS1R1-TMD ([Zhang et al., 2008]).

Compound	response to the agonist alone, vs WT (A302W)	EC50	Max ∆F/F0 (A302W, GSH)	R1 = mutant EC50/WT EC50 (A302W, GSH)
CCCC(CCC)NC(=O)c1ccc2c(c1)OCO2 [S807, N-(heptan-4-yl)benzo[d][1,3]dioxole-5-carboxamide, reference compound]	strongly affected			
N[C@@H](CCC(=O)O)C(=O)O [L-Glu, L-glutamic acid, reference compound]	completely suppressed			
N[C@@H](CCC(=O)N[C@@H](CS)C(=O)NCC(=O)O)C(=O)O [GSH, γ-L-glutamyl-L-cysteinyl-glycine]		5.32 ± 2.54 mM	0.09 ± 0.01	2.1
